Measured values published in US8642799B2, “Cysteine protease inhibitors for the treatment of parasitic diseases” (Merck Canada Inc., priority 2007, dated 2014).

Biological target: cruzipain (Trypanosoma cruzi, UniProt P25779)
Test: biochemical
Details: 50 pM cruzipain, pH 5.5, 15 minutes preincubation, 2 μM Z-Phe-Arg-AMC substrate
Experimental: The assay solutions were mixed and incubated for 15 minutes at room temperature prior to the addition of 2 μM of Z-Phe-Arg-AMC substrate. […] Percent of inhibition were calculated by fitting experimental values to standard mathematical model for dose response curve.

Chain of cruzipain (P25779 123-467): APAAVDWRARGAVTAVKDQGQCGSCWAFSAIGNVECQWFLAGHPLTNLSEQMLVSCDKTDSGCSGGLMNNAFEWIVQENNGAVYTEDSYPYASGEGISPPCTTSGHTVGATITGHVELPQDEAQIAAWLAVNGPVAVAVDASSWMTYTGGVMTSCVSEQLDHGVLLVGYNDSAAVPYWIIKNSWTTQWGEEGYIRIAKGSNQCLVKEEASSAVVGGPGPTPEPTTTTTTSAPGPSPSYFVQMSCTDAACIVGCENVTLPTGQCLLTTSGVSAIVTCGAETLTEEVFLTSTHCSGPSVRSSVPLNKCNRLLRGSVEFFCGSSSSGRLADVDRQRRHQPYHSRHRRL

For CC(C)(F)C[C@H](N[C@@H](c1ccc(-c2ccc(C3(C(=O)NC4CC4)CC3)cc2)cc1)C(F)(F)F)C(=O)N[C@H](C#N)Cc1ccccc1 [Example 56, 1-[4′-((S)-1-{(S)-1-[((S)-Benzyl-cyano-methyl)-carbamoyl]-3-fluoro-3-methyl-butylamino}-2,2,2-trifluoro-ethyl)-biphenyl-4-yl]-cyclopropanecarboxylic acid cyclopropylamide], which IC50 is on record?
Its IC50 is 3.7 nM.

For C=CCNC(=O)C1(c2ccc(-c3ccc([C@H](N[C@@H](CC(C)(C)F)C(=O)N[C@H](C#N)Cc4ccccc4)C(F)(F)F)cc3)cc2)CC1 [Example 57, 1-[4′-((S)-1-{(S)-1-[((S)-Benzyl-cyano-methyl)-carbamoyl]-3-fluoro-3-methyl-butylamino}-2,2,2-trifluoro-ethyl)-biphenyl-4-yl]-cyclopropanecarboxylic acid allylamide], which IC50 is on record?
The IC50 was 4.3 nM.

With CC(C)[C@H](N[C@@H](c1ccc(-c2ccc(C3(C(=O)O)CC3)cc2)cc1)C(F)(F)F)C(=O)N[C@H](C#N)Cc1ccc(C#N)cc1F [Example 58, 1-{4′-[(S)-1-((S)-1-{[(S)-Cyano-(4-cyano-2-fluoro-benzyl)-methyl]-carbamoyl}-2-methyl-propylamino)-2,2,2-trifluoro-ethyl]-biphenyl-4-yl}-cyclopropanecarboxylic acid] as the compound, how does the IC50 read?
The IC50 was 0.3 nM.

CC(C)[C@H](N[C@@H](c1ccc(-c2ccc(C3(C(=O)NCCO)CC3)cc2)cc1)C(F)(F)F)C(=O)N[C@H](C#N)Cc1ccc(C#N)cc1F [Example 59, 1-{4′-[(S)-1-((S)-1-{[(S)-Cyano-(4-cyano-2-fluoro-benzyl)-methyl]-carbamoyl}-2-methyl-propylamino)-2,2,2-trifluoro-ethyl]-biphenyl-4-yl}-cyclopropanecarboxylic acid (2-hydroxy-ethyl)-amide] was tested. Which IC50 did it give?
Its IC50 is 0.1 nM.

With CC(C)[C@H](N[C@@H](c1ccc(-c2ccc([C@@H](O)C(F)F)cc2)cc1)C(F)(F)F)C(=O)N[C@H](C#N)Cc1ccc(C(F)(F)F)cc1F [Example 61, (S)-N-[(S)-Cyano-(2-fluoro-4-trifluoromethyl-benzyl)-methyl]-2-{(S)-1-[4′-((R)-2,2-difluoro-1-hydroxy-ethyl)-biphenyl-4-yl]-2,2,2-trifluoro-ethylamino}-3-methyl-butyramide] as the compound, how does the IC50 read?
Its IC50 is 1.5 nM.

CC(C)[C@H](N[C@@H](c1ccc(-c2ccc(S(C)(=O)=O)cc2)cc1)C(F)(F)F)C(=O)N[C@H](C#N)Cc1ccc(C(F)(F)F)cc1F [Example 62, (S)-N-[(S)-Cyano-(2-fluoro-4-trifluoromethyl-benzyl)-methyl]-3-methyl-2-[(S)-2,2,2-trifluoro-1-(4′-methanesulfonyl-biphenyl-4-yl)-ethylamino]-butyramide] was tested. Which IC50 did it give?
The IC50 was 0.4 nM.

With CC(C)(F)C[C@H](N[C@@H](c1ccc(-c2ccc(S(C)(=O)=O)cc2)cc1)C(F)(F)F)C(=O)N[C@H](C#N)Cc1cccnc1 [Example 64, (S)-4-Fluoro-4-methyl-2-[(S)-2,2,2-trifluoro-1-(4′-methanesulfonyl-biphenyl-4-yl)-ethylamino]-pentanoic acid ((S)-cyano-pyridin-3-ylmethyl-methyl)-amide] as the compound, how does the IC50 read?
Its IC50 is 12.6 nM.

CC(C)(F)C[C@H](N[C@@H](c1ccc(-c2ccc(S(C)(=O)=O)cc2)cc1)C(F)(F)F)C(=O)N[C@H](C#N)Cc1cccc[n+]1[O-] [Example 65, (S)-4-Fluoro-4-methyl-2-[(S)-2,2,2-trifluoro-1-(4′-methanesulfonyl-biphenyl-4-yl)-ethylamino]-pentanoic acid [(S)-cyano-(1-oxy-pyridin-2-ylmethyl)-methyl]-amide] was tested. Which IC50 did it give?
The IC50 was 15 nM.

CC(C)(F)C[C@H](N[C@@H](c1ccc(-c2ccc(S(C)(=O)=O)cc2)cc1)C(F)(F)F)C(=O)N[C@H](C#N)Cc1c(F)cc(Br)cc1F [Example 66, (S)-4-Fluoro-4-methyl-2-[(S)-2,2,2-trifluoro-1-(4′-methanesulfonyl-biphenyl-4-yl)-ethylamino]-pentanoic acid [(S)-(4-bromo-2,6-difluorobenzyl)-cyano-methyl]-amide] was tested. Which IC50 did it give?
Its IC50 is 1.6 nM.

For CC(C)(F)C[C@H](N[C@@H](c1ccc(-c2ccc(S(C)(=O)=O)cc2)cc1)C(F)(F)F)C(=O)N[C@H](C#N)Cc1c(F)cc(C#N)cc1F [Example 67, (S)-4-Fluoro-4-methyl-2-[(S)-2,2,2-trifluoro-1-(4′-methanesulfonyl-biphenyl-4-yl)-ethylamino]-pentanoic acid [(S)-cyano-(4-cyano-2,6-difluoro-benzyl)-methyl]-amide], which IC50 is on record?
The IC50 was 0.9 nM.

Which IC50 does the source give for CS(=O)(=O)c1ccc(-c2ccc([C@H](N[C@H](C(=O)N[C@H](C#N)Cc3ccc(C#N)cc3F)C3CC3)C(F)(F)F)cc2)cc1 [Example 68, (S)-N-[(S)-Cyano-(4-cyano-2-fluoro-benzyl)-methyl]-2-cyclopropyl-2-[(S)-2,2,2-trifluoro-1-(4′-methanesulfonyl-biphenyl-4-yl)-ethylamino]-acetamide] here?
The IC50 was 4.4 nM.

N#Cc1ccc(C[C@@H](C#N)NC(=O)[C@@H](N[C@@H](c2ccc(-c3ccc([C@@H](O)C(F)F)cc3)cc2)C(F)(F)F)C2CC2)c(F)c1 [Example 69, (S)-N-[(S)-Cyano-(4-cyano-2-fluoro-benzyl)-methyl]-2-cyclopropyl-2-{(S)-1-[4′-((R)-2,2-difluoro-1-hydroxy-ethyl)-biphenyl-4-yl]-2,2,2-trifluoro-ethylamino}-acetamide] was tested. Which IC50 did it give?
The IC50 was 4.3 nM.

Which IC50 does the source give for CC(C)[C@H](N[C@@H](c1ccc(-c2ccc(S(C)(=O)=O)cc2)cc1)C(F)(F)F)C(=O)N[C@H](C#N)Cc1c(F)cc(Br)cc1F [Example 70, (S)-N-[(S)-(4-Bromo-2,6-difluoro-benzyl)-cyano-methyl]-3-methyl-2-[(S)-2,2,2-trifluoro-1-(4′-methanesulfonyl-biphenyl-4-yl)-ethylamino]-butyramide] here?
Its IC50 is 0.6 nM.

How did the IC50 turn out when CC(C)[C@H](N[C@@H](c1ccc(-c2ccc([C@@H](O)C(F)F)cc2)cc1)C(F)(F)F)C(=O)N[C@H](C#N)Cc1c(F)cc(Br)cc1F [Example 71, (S)-N-[(S)-(4-Bromo-2,6-difluoro-benzyl)-cyano-methyl]-2-{(S)-1-[4′-((R)-2,2-difluoro-1-hydroxy-ethyl)-biphenyl-4-yl]-2,2,2-trifluoro-ethylamino}-3-methyl-butyramide] was run?
The IC50 was 2.1 nM.

For CC(C)[C@H](N[C@@H](c1ccc(-c2ccc(S(C)(=O)=O)cc2)cc1)C(F)(F)F)C(=O)N[C@H](C#N)Cc1c(F)cc(C#N)cc1F [Example 72, (S)-N-[(S)-Cyano-(4-cyano-2,6-difluoro-benzyl)-methyl]-3-methyl-2-[(S)-2,2,2-trifluoro-1-(4,- methanesulfonyl-biphenyl-4-yl)-ethylamino]-butyramide], which IC50 is on record?
Its IC50 is 0.5 nM.

CC(C)[C@H](N[C@@H](c1ccc(-c2ccc([C@@H](O)C(F)F)cc2)cc1)C(F)(F)F)C(=O)N[C@H](C#N)Cc1c(F)cc(C#N)cc1F [Example 73, (S)-N-[(S)-Cyano-(4-cyano-2,6-difluoro-benzyl)-methyl]-2-{(S)-1-[4,- ((R)-2,2-difluoro-1-hydroxy-ethyl)-biphenyl-4-yl]-2,2,2-trifluoro-ethylamino}-3-methyl-butyramide] was tested. Which IC50 did it give?
The IC50 was 0.7 nM.

How did the IC50 turn out when CC(C)(F)C[C@H](N[C@@H](c1ccc(-c2ccc(S(C)(=O)=O)cc2)cc1)C(F)(F)F)C(=O)N[C@H](C#N)Cc1ccc[n+]([O-])c1 [Example 74, (S)-4-Fluoro-4-methyl-2-[(S)-2,2,2-trifluoro-1-(4′-methanesulfonyl-biphenyl-4-yl)-ethylamino]-pentanoic acid [(S)-cyano-(1-oxy-pyridin-3-ylmethyl)-methyl]-amide] was run?
Its IC50 is 39 nM.

Which IC50 does the source give for CC(C)(F)C[C@H](N[C@@H](c1ccc(-c2ccc(S(C)(=O)=O)cc2)cc1)C(F)(F)F)C(=O)N[C@H](C#N)Cc1cc[n+]([O-])cc1 [Example 75, (S)-4-Fluoro-4-methyl-2-[(S)-2,2,2-trifluoro-1-(4′-methanesulfonyl-biphenyl-4-yl)-ethylamino]-pentanoic acid [(S)-cyano-(1-oxy-pyridin-4-ylmethyl)-methyl]-amide] here?
Its IC50 is 120 nM.

Which IC50 does the source give for CC(C)(F)C[C@H](N[C@@H](c1ccc(-c2ccc(S(C)(=O)=O)cc2)cc1)C(F)(F)F)C(=O)N[C@H](C#N)Cc1c(F)cccc1F [Example 76, (S)-4-Fluoro-4-methyl-2-[(S)-2,2,2-trifluoro-1-(4′-methanesulfonyl-biphenyl-4-yl)-ethylamino]-pentanoic acid [(S)-cyano-(2,6-difluoro-benzyl)-methyl]-amide] here?
The IC50 was 7.1 nM.
